Data on 7 compounds can be found in US12312343B2, “Rotomeric isomers of 4-alkyl-5-heteroaryl-3H-1,2-dithiole-3-thiones” (ST IP HOLDING AG, priority 2018, dated 2025).

The subject of test [1] is ALOX12. In words: Human oxidative stress RT2 Profiler PCR array in HGEPp cells: ALOX12. Type of test: cell-based. The settings on record: 100 μg/ml, 24 h, RT-PCR ΔΔCt. The protocol: (§1) RT-PCR was performed on an iCycler.
Test [2] relates to SOD1. Nature of the test: Human oxidative stress RT2 Profiler PCR array in HGEPp cells: SOD1. The settings on record: 100 μg/ml, 24 h, RT-PCR ΔΔCt. It is filed as cell-based. As to the method: as §1
Test [3] concerns GPX1. Nature of the test: Human oxidative stress RT2 Profiler PCR array in HGEPp cells: GPX1. It is filed as cell-based. The settings on record: 100 μg/ml, 24 h, RT-PCR ΔΔCt. The protocol: as §1
Test [4] concerns NQO1. Nature of the test: Human oxidative stress RT2 Profiler PCR array in HGEPp cells: NQO1. Type of test: cell-based. The following applies: 100 μg/ml, 24 h, RT-PCR ΔΔCt. The protocol:
as §1

Test [5] relates to GCLC. Nature of the test: Human oxidative stress RT2 Profiler PCR array in HGEPp cells: GCLC. Type of test: cell-based. The following applies: 100 μg/ml, 24 h, RT-PCR ΔΔCt. As to the method:
as §1

The subject of test [6] is GSTP1. In words: Human oxidative stress RT2 Profiler PCR array in HGEPp cells: GSTP1. It is filed as cell-based. The settings on record: 100 μg/ml, 24 h, RT-PCR ΔΔCt. As to the method: as §1
In test [7] the test system is GCLM. Nature of the test: Human oxidative stress RT2 Profiler PCR array in HGEPp cells: GCLM. It is filed as cell-based. The settings on record: 100 μg/ml, 24 h, RT-PCR ΔΔCt. As to the method:
as §1

Test [8] has as its system GTF2i. Nature of the test: Human oxidative stress RT2 Profiler PCR array in HGEPp cells: GTF2i. Type of test: cell-based. The following applies: 100 μg/ml, 24 h, RT-PCR ΔΔCt. As to the method: as §1
Test [9] has as its system PTGS1. In words: Human oxidative stress RT2 Profiler PCR array in HGEPp cells: PTGS1. Type of test: cell-based. The settings on record: 100 μg/ml, 24 h, RT-PCR ΔΔCt. The protocol:
as §1

Test [10] deals with UCP2. Nature of the test: Human oxidative stress RT2 Profiler PCR array in HGEPp cells: UCP2. The settings on record: 100 μg/ml, 24 h, RT-PCR ΔΔCt. It is filed as cell-based. The protocol: as §1
Test [11] has as its system HGEPp cells. Nature of the test: ROS production in H2O2-induced oxidatively stressed HGEPp cells. The settings on record: HGEPp cells pretreated 24 hrs at 100 μg/mL, then 0.3 mM H2O2 for 4 h; positive control 139%.
The subject of test [12] is MPO. In words: Human oxidative stress RT2 Profiler PCR array in HGEPp cells: MPO. The settings on record: 100 μg/ml, 24 h, RT-PCR ΔΔCt.
Experimental: (§2) Pooled primary HGEPp cells were propagated in CnT-Prime epithelial culture medium provided by CellnTec on 100 mm petri dishes coated with 30 mg/ml Type I rat tail collagen (BD Biosciences) diluted in Dulbecco's phosphate-buffered saline (DPBS). HGEPp cells were grown in 12×60 mm Nunc™ Cell Culture dishes at a 2.5×10^4 cells/cm2 density concentration.
(§3) All dosing solutions contained 0.3% of DMSO which is well below the maximum tolerated DMSO percent of 0.8% for HGEPp cells.
(§4) The cDNA from above was mixed with the RT2 SYBR Green fluor Mastermix and aliquoted into the wells of the RT2 Profiler PCR Array. RT-PCR was performed on an iCycler. Gene expression was compared using Ct values and the results were calculated using ΔΔ Ct method with normalization to the average expression levels of the five common genes (ACTB, B2M, GAPDH, HPRT, and RPL13A).
Test [13] relates to GPX4. Nature of the test: Human oxidative stress RT2 Profiler PCR array in HGEPp cells: GPX4. The settings on record: 100 μg/ml, 24 h, RT-PCR ΔΔCt.
Experimental: as §2, §3, §4
For test [14], the system named is PRDX2. In words: Human oxidative stress RT2 Profiler PCR array in HGEPp cells: PRDX2. The following applies: 100 μg/ml, 24 h, RT-PCR ΔΔCt.
Experimental: as §2, §3, §4

In the case of “dimethyl phosphate complex of N-methyl oltipraz [Example 9]”, in [1], the “ALOX12 up regulation relative fold change” value came out at 6.43 fold. Moreover, the “SOD1 up regulation relative fold change” value is on record as “significantly higher up-regulation” in [2] and 5.22 fold in test [2] (listed as Ex. 9). Also, the “GPX1 up regulation relative fold change” value in test [3] turned out to be 4.89 fold. Besides, the “NQO1 up regulation relative fold change” value in test [4] was “significantly higher up-regulation”; in [4] (listed as Ex. 9) it was 4.24 fold. The “GCLC up regulation relative fold change” value in test [5] is reported as “significantly higher up-regulation”; in test [5] (listed as Ex. 9) it was 4.60 fold. In addition, the “GSTP1 up regulation relative fold change” value was “significantly higher up-regulation” in test [6] and 3.16 fold in test [6] (listed as Ex. 9). Also, the “GCLM up regulation relative fold change” value is “significantly higher up-regulation” in test [7] and 3.15 fold in test [7] (listed as Ex. 9). Also, in [8], the “GTF2i down regulation relative fold change” value amounted to 0.28 fold. Besides, the “PTGS1 down regulation relative fold change” value in [9] was 0.21 fold. Moreover, the “UCP2 down regulation relative fold change” value in [10] was 0.15 fold. Moreover, the “ROS level (optical density, Normal = 100% baseline)” value in test [11] was 112%. For the same compound, the “MPO up regulation relative fold change” value in test [12] is 3.41 fold. Further, in test [13], the “GPX4 up regulation relative fold change” value is 2.93 fold. Also, in test [14], the “PRDX2 down regulation relative fold change” value stood at 0.27 fold.
Consider “diethyl dithiophosphate complex of oltipraz [Example 7]”, for which the “ALOX12 up regulation relative fold change” value in [1] was 6.38 fold. Further, in test [2], the “SOD1 up regulation relative fold change” value turned out to be 4.85 fold. Further, in [3], the “GPX1 up regulation relative fold change” value is 4.72 fold. For the same compound, the “NQO1 up regulation relative fold change” value in test [4] was determined as 3.93 fold. Also, the “GCLC up regulation relative fold change” value in test [5] was determined as 4.41 fold. Also, in test [6], the “GSTP1 up regulation relative fold change” value amounted to 3.13 fold. Moreover, the “GCLM up regulation relative fold change” value in [7] turned out to be 3.00 fold. In [8], the “GTF2i down regulation relative fold change” value is reported as 0.29 fold. Moreover, the “PTGS1 down regulation relative fold change” value in test [9] turned out to be 0.21 fold. Also, the “UCP2 down regulation relative fold change” value in [10] stood at 0.17 fold. Also, in [11], the “ROS level (optical density, Normal = 100% baseline)” value was 117%. For the same compound, in test [12], the “MPO up regulation relative fold change” value is recorded as 3.42 fold. In addition, the “GPX4 up regulation relative fold change” value in test [13] came out at 2.99 fold. In test [14], the “PRDX2 down regulation relative fold change” value worked out at 0.28 fold.
On to “methyl iodide complex of oltipraz [Example 5]”, for which the “ALOX12 up regulation relative fold change” value in test [1] is on record as 6.04 fold. In addition, the “SOD1 up regulation relative fold change” value in test [2] amounted to 3.89 fold. The “GPX1 up regulation relative fold change” value in test [3] was 4.98 fold. Also, the “NQO1 up regulation relative fold change” value in test [4] is listed as 3.15 fold. The “GCLC up regulation relative fold change” value in test [5] came to 3.38 fold. The “GSTP1 up regulation relative fold change” value in [6] was found to be 2.90 fold. Also, the “GCLM up regulation relative fold change” value in test [7] is 2.27 fold. For the same compound, the “GTF2i down regulation relative fold change” value in test [8] is listed as 0.33 fold. For the same compound, in test [9], the “PTGS1 down regulation relative fold change” value amounted to 0.28 fold. For the same compound, the “UCP2 down regulation relative fold change” value in [10] was 0.29 fold. For the same compound, the “ROS level (optical density, Normal = 100% baseline)” value in test [11] was 134%. The “MPO up regulation relative fold change” value in [12] is listed as 3.18 fold. In [13], the “GPX4 up regulation relative fold change” value is reported as 2.85 fold. Also, the “PRDX2 down regulation relative fold change” value in [14] is 0.32 fold.
Take “n-butyl chloride complex of oltipraz [Example 4]”: in test [1], the “ALOX12 up regulation relative fold change” value is on record as 5.82 fold. For the same compound, in test [2], the “SOD1 up regulation relative fold change” value came out at 4.15 fold. For the same compound, in test [3], the “GPX1 up regulation relative fold change” value is 4.80 fold. Also, in test [4], the “NQO1 up regulation relative fold change” value was determined as 3.34 fold. Besides, the “GCLC up regulation relative fold change” value in [5] is 3.35 fold. For the same compound, in [6], the “GSTP1 up regulation relative fold change” value amounted to 2.88 fold. In addition, the “GCLM up regulation relative fold change” value in test [7] stood at 2.38 fold. For the same compound, in test [8], the “GTF2i down regulation relative fold change” value came to 0.35 fold. Besides, the “PTGS1 down regulation relative fold change” value in [9] was 0.27 fold. In test [10], the “UCP2 down regulation relative fold change” value is on record as 0.25 fold. Moreover, the “ROS level (optical density, Normal = 100% baseline)” value in [11] is 128%. Besides, the “MPO up regulation relative fold change” value in test [12] was 3.20 fold. For the same compound, the “GPX4 up regulation relative fold change” value in test [13] is reported as 2.96 fold. The “PRDX2 down regulation relative fold change” value in [14] is listed as 0.32 fold.
With `Cc1c(-c2cnccn2)ssc1=S.O=S(=O)(O)CCO` [Example 10, isethionic acid complex of oltipraz], in [1], the “ALOX12 up regulation relative fold change” value amounted to 6.48 fold. The results for the “SOD1 up regulation relative fold change” value in test [2] and in test [2] (listed as Ex. 10) were “significantly higher up-regulation” and 5.23 fold, respectively. The “GPX1 up regulation relative fold change” value in test [3] is on record as 4.86 fold. Further, the “NQO1 up regulation relative fold change” value is “significantly higher up-regulation” in test [4] and 4.26 fold in test [4] (listed as Ex. 10). Further, the “GCLC up regulation relative fold change” value is “significantly higher up-regulation” in test [5] and 4.52 fold in test [5] (listed as Ex. 10). The “GSTP1 up regulation relative fold change” value in [6] is on record as “significantly higher up-regulation”; in test [6] (listed as Ex. 10), 3.18 fold. The “GCLM up regulation relative fold change” value in test [7] is “significantly higher up-regulation”; in test [7] (listed as Ex. 10) it was 3.11 fold. In addition, in test [8], the “GTF2i down regulation relative fold change” value is 0.31 fold. For the same compound, in [9], the “PTGS1 down regulation relative fold change” value is listed as 0.22 fold. For the same compound, the “UCP2 down regulation relative fold change” value in test [10] was 0.16 fold. In addition, the “ROS level (optical density, Normal = 100% baseline)” value in test [11] was determined as 113%. The “MPO up regulation relative fold change” value in test [12] was determined as 3.39 fold. Moreover, in test [13], the “GPX4 up regulation relative fold change” value came to 2.79 fold. In addition, the “PRDX2 down regulation relative fold change” value in test [14] was 0.28 fold.
In the case of “benzoyl chloride complex of oltipraz [Example 6]”, in test [1], the “ALOX12 up regulation relative fold change” value is reported as 5.93 fold. Also, in [2], the “SOD1 up regulation relative fold change” value amounted to 3.92 fold. Moreover, in test [3], the “GPX1 up regulation relative fold change” value amounted to 4.43 fold. In test [4], the “NQO1 up regulation relative fold change” value came to 3.17 fold. For the same compound, in [5], the “GCLC up regulation relative fold change” value was 3.31 fold. In addition, the “GSTP1 up regulation relative fold change” value in test [6] was found to be 2.74 fold. For the same compound, the “GCLM up regulation relative fold change” value in [7] came to 2.25 fold. In addition, the “GTF2i down regulation relative fold change” value in test [8] was determined as 0.36 fold. Besides, the “PTGS1 down regulation relative fold change” value in test [9] is 0.28 fold. Besides, the “UCP2 down regulation relative fold change” value in [10] was found to be 0.28 fold. For the same compound, in [11], the “ROS level (optical density, Normal = 100% baseline)” value worked out at 131%. Besides, the “MPO up regulation relative fold change” value in test [12] turned out to be 3.05 fold. The “GPX4 up regulation relative fold change” value in test [13] turned out to be 2.91 fold. For the same compound, the “PRDX2 down regulation relative fold change” value in test [14] is 0.31 fold.
Turning to “thiobenzoic acid complex of oltipraz [Example 11]”, the “ALOX12 up regulation relative fold change” value in test [1] worked out at 6.39 fold. In addition, the “SOD1 up regulation relative fold change” value in test [2] was determined as 4.96 fold. In addition, in test [3], the “GPX1 up regulation relative fold change” value was determined as 4.82 fold. Moreover, the “NQO1 up regulation relative fold change” value in test [4] was found to be 4.09 fold. Besides, in test [5], the “GCLC up regulation relative fold change” value amounted to 4.46 fold. In test [6], the “GSTP1 up regulation relative fold change” value came out at 3.07 fold. For the same compound, the “GCLM up regulation relative fold change” value in test [7] was found to be 3.08 fold. Further, in [8], the “GTF2i down regulation relative fold change” value is on record as 0.29 fold. In addition, the “PTGS1 down regulation relative fold change” value in test [9] came out at 0.22 fold. In test [10], the “UCP2 down regulation relative fold change” value is on record as 0.15 fold. Further, the “ROS level (optical density, Normal = 100% baseline)” value in test [11] is listed as 116%. Moreover, in test [12], the “MPO up regulation relative fold change” value worked out at 3.44 fold. Besides, the “GPX4 up regulation relative fold change” value in test [13] amounted to 2.94 fold. Also, in [14], the “PRDX2 down regulation relative fold change” value was determined as 0.27 fold.
